Laboratory results: ChEMBL document CHEMBL3352505, “Pentacycloundecylamines and conjugates thereof as chemosensitizers and reversed chloroquine agents” (Bioorg Med Chem Lett, 2014)

What was measured:
[1] = Selectivity index, ratio of IC50 for CHO cells to IC50 for chloroquine-sensitive Plasmodium falciparum D10; type: toxicity, cell-based; settings: hamster; read-out: Ratio IC50
CHO = assay: Cytotoxicity against CHO cells by MTT assay; type: cell-based, Cricetulus griseus; settings: for IC50: Cricetulus griseus, CHO
Plasmodium falciparum [2] = assay: Ratio of chloroquine IC50 to compound IC50 for chloroquine-resistant Plasmodium falciparum Dd2; type: functional
Plasmodium falciparum [3] = assay: Antimicrobial activity against chloroquine-resistant Plasmodium falciparum Dd2; type: functional
Plasmodium falciparum [4] = assay: Resistance index, ratio of IC50 for chloroquine-resistant Plasmodium falciparum Dd2 to IC50 for chloroquine-sensitive Plasmodium falciparum D10; type: functional
Plasmodium falciparum [5] = assay: Antimicrobial activity against chloroquine-sensitive Plasmodium falciparum D10; type: functional
Plasmodium falciparum [6] = assay: Resistance modification index, ratio of IC50 for chloroquine in presence of 10 uM compound to IC50 for chloroquine alone for chloroquine-resistant Plasmodium falciparum Dd2; type: functional
Plasmodium falciparum [7] = assay: Resistance modification index, ratio of IC50 for chloroquine in presence of 1 uM compound to IC50 for chloroquine alone for chloroquine-resistant Plasmodium falciparum Dd2; type: functional

In the case of `OC12C3C4CC5C6C4C1C6C(C53)N2CCNc1ccnc2cc(Cl)ccc12` (configuration not stated), the selectivity ratio [1] is reported as 2550, the IC50 (CHO) is reported as 9540 nM and the “Ratio IC50” value (Plasmodium falciparum [2]) is reported as 5. The IC50 (Plasmodium falciparum [3]) was 27.6 nM, the “Ratio IC50” value (Plasmodium falciparum [4]) was 7 and the IC50 (Plasmodium falciparum [5]) was 3.74 nM.

In the case of `CC[C@H]1CN2CCc3cc(OC)c(OC)cc3[C@@H]2C[C@@H]1C[C@H]1NCCc2cc(OC)c(OC)cc21` [EMETINE], the IC50 (CHO) is reported as 61 nM.

With `c1ccc(CNC23OC4C5C6CC(C7C6C4C72)C53)cc1` (configuration not stated) the Activity (CHO; chinese hamster, cho) was “Non-toxic”, the “Ratio IC50” value (Plasmodium falciparum [6]) was 0.48 and the “Ratio IC50” value (Plasmodium falciparum [7]) was 0.6. For the same molecule, the IC50 (Plasmodium falciparum [3]) was over 2000 nM and the IC50 (Plasmodium falciparum [5]) was over 2000 nM.

Work on `OC12C3C4CC5C6C4C1C6C(C53)N2CCCCNc1ccnc2cc(Cl)ccc12` (configuration not stated) yielded a selectivity ratio [1] of 283, an IC50 (CHO) of 2390 nM and an IC50 (Plasmodium falciparum [3]) of 187 nM. For the same molecule, the “Ratio IC50” value (Plasmodium falciparum [4]) was 22 and the IC50 (Plasmodium falciparum [5]) was 8.45 nM.

With `OC12C3C4CC5C6C4C1C6C(C53)N2CCCCCCNc1ccnc2cc(Cl)ccc12` (configuration not stated) the selectivity ratio [1] was 149, the IC50 (CHO) was 2630 nM and the IC50 (Plasmodium falciparum [3]) was 253 nM. For the same molecule, the “Ratio IC50” value (Plasmodium falciparum [4]) was 14 and the IC50 (Plasmodium falciparum [5]) was 17.6 nM.
